“Also recorded” adds a separate entry of the source.
Assays:
[1] = tested on: naïve CD4+ T cells (Treg differentiation, FoxP3); assay: In vitro Treg differentiation, FoxP3 staining by flow cytometry; format: cell-based, mouse
Description: To determine if bile acids influence T cell functions, the present inventors performed a small-scale screening assay with a small molecule library comprising secondary bile acids with in vitro Treg differentiation as a read-out. Naïve CD4^+ T lymphocytes were sorted from wild-type B6 mice and cultured in the presence of a TCR stimulus, interleukin 2 (IL-2), and different amounts of TGFβ (optimized for Treg differentiation). Treg differentiation was quantified at the single cell level by staining with an antibody specific for FoxP3, followed by flow cytometry analysis. Retinoic acid, a known enhancer of Treg differentiation, was used as a positive control.
(§1) Our screen included both primary bile acids, synthesized by the host, and secondary bile acids, produced by bacterial modification of primary bile acids (FIG. 5). Naïve CD4^+ T cells were isolated from wild-type C57BL/6J (B6) mice and cultured with bile acids under Th17 differentiation conditions and, as a counter-screen, Treg differentiation conditions (FIG. 6).
(§2) In Vitro T Cell Culture. Naïve CD4^+ (CD62L^+ CD44^− CD25^− CD4^+) T cells were isolated from the spleens and the lymph nodes of mice of designated genotypes with FACS sorting. For certain experiments, naïve CD4^+ T cells were enriched using naïve CD4^+ T cell isolation kits (Miltenyi). Naïve CD4^+ T cells (40,000 cells) were cultured in a 96-well plate pre-coated with hamster IgG (MP Biomedicals) in T cell medium (RPMI, 10% fetal bovine serum, 25 mM glutamine, 55 μM 2-mercaptoethanol, 100 U/mL penicillin, […] streptomycin) supplemented with 0.25 μg/mL anti-CD3 (clone 145-2C11) and 1 μg/mL anti-CD28 (clone 37.51). For Th0 culture, T cells were cultured with the addition of 100 U/mL of IL-2 (PEPROTECH). For Th1 cell differentiation, T cells were cultured with the addition of 100 U/mL of IL-2, 10 μg/mL of anti-IL-4 (clone 11B11) and 10 ng/mL of IL-12 (PEPROTECH). For Th2 cell differentiation, T cells were cultured with the addition of 10 μg/mL of anti-IFNγ (clone XMG1.2) and 10 ng/mL of IL-4 (R&D Systems). For Th17 cell differentiation, T cells were cultured with the addition of 10 ng/mL of IL-6 (eBioscience) and 0.5 ng/mL of TGF-β (PEPROTECH). For Treg culture, T cells were cultured with the addition of 100 U/mL of IL-2 and various concentrations of TGF-β. […] Bile acids, retinoic acid (Sigma) or mitoQ (Focus Biomolecules), or mitoPQ (Sigma) were added either at 0 or 16 h time points. Compounds with low water solubility were sonicated before adding to the culture. Cells were harvested and assayed by flow cytometry on day 3. For ROS and mitochondrial membrane potential detection, cells cultured for 2 days were incubated with 5 μM of mitoSOX (ThermoFisher), 10 μM of DCFDA (Sigma) or 2 μM of JC-1 (ThermoFisher) for 30 min and assayed with flow cytometry.
(§3) Flow Cytometry. Cells harvested from in vitro culture or in vivo mice experiments were stimulated with 50 ng/mL PMA (Phorbol 12-myristate 13-acetate, Sigma) and 1 μM ionomycin (Sigma) in the presence of GolgiPlug (BD) for 4 h to determine cytokine expression. After stimulation, cells were stained with cell surface marker antibodies and LIVE/DEAD Fixable dye, Aqua, to exclude dead cells, fixed and permeabilized with a FoxP3/Transcription factor staining kit (eBioscience), followed by staining with cytokine- and/or transcription factor-specific antibodies. All flow cytometry analyses were performed on an LSR II flow cytometer (BD) and data were analyzed with FlowJo software (TreeStar).

[2] = tested on: lamina propria CD4+ T cells (Th17, Treg); assay: Anti-CD3 injection gut inflammation model, bile acid diet; format: in vivo, mouse; conditions: 1% diet
Procedure: (§4) Data are shown as the mean±standard deviation by unpaired t-test with 2-tailed p-value.
Cells were then analyzed by flow cytometry.

[3] = Bile acid quantification in mouse cecal contents by UPLC-MS; conditions: mice fed 0.3% (w/w) 3-oxoLCA chow for one week
Description: as §4

[4] = tested on: naïve CD4+ T cells (Th17 differentiation, IL-17a); assay: In vitro Th17 differentiation, IL-17a staining by flow cytometry; format: cell-based, mouse
Description: as §1, §2, §3

[5] = target: T1, recombinant human RORγt ligand-binding domain (LBD) (Homo sapiens, UniProt P51449); assay: Microscale thermophoresis assay; conditions: MST, read-out: equilibrium dissociation constant (Kd)
T1 sequence (P51449 269-508 limits assumed): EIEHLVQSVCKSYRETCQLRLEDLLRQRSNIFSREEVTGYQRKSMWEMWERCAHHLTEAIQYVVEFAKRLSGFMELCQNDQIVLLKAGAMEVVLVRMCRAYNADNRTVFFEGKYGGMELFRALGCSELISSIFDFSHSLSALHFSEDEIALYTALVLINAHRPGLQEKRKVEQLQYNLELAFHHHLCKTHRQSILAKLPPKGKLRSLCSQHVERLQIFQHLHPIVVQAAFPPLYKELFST
Procedure: (§5) We next examined if 3-oxoLCA physically interacts with the RORγt protein in vitro. A microscale thermophoresis (MST) assay was performed with recombinant human RORγt ligand-binding domain (LBD). […] Next, we examined if 3-oxoLCA modulates the transcriptional activity of RORγt. We assayed the effect of the bile acids on firefly luciferase expression directed by a fusion protein of RORγt and Gal4-DBD (DNA-binding domain) in human embryonic kidney (HEK) 293 cells^14.
Microscale Thermophoresis Assay. The binding affinity of the compounds with RORγ ligand-binding domain (LBD) was analyzed by microscale thermophoresis (MST). Purified RORγ-LBD was labeled with the Monolith NT™ Protein Labeling Kit RED (NanoTemper Technologies). Serially-diluted compounds, with concentrations of 1 mM to 20 nM, were mixed with 55 nM labeled RORγ-LBD at room temperature and loaded into Monolith™ standard-treated capillaries. Binding was measured by monitoring the thermophoresis with 20% LED power and ‘Medium’ MST power on a Monolith NT.115 instrument (Nano Temper Technologies) with the following time setting: 5s Fluo, Before; 20s MST On; and 5s Fluo, After. Kd values were fitted using the NT Analysis software (Nano Temper Technologies).

[6] = tested on: fusion protein of RORγt and Gal4-DBD; assay: RORγt luciferase reporter assay in HEK293 cells; format: cell-based, human; conditions: ML209 2 μM, bile acids 10 μM
Procedure: as §4, §5

For C[C@H](CCC(=O)O)[C@H]1CC[C@H]2[C@@H]3CC[C@@H]4CC(=O)CC[C@]4(C)[C@H]3CC[C@]12C [3-oxoLCA, 3-oxolithocholic acid], the “effect on Treg differentiation induced by isoalloLCA” value ([1]; 3-oxoLCA 20 μM + isoalloLCA 20 μM) was “further enhanced Treg differentiation induced by isoalloLCA in vitro”, the “Treg differentiation (FoxP3 expression)” value ([1]; bile acids 20 μM, 3 days, anti-CD3/28, IL-2) was “did not affect Tregs” and the “Th17 cell levels after anti-CD3 injection” value [2] was “reduced Th17 cell levels”. The “average concentration in cecal contents” value [3] was 24 picomol/mg of wet mass, the “suppression of Th17 cells in VDR or FXR knockout cells” value ([4]; 20 μM) was “VDR and FXR also failed to contribute to the suppressive activities” and the “Th17 cell differentiation (IL-17a)” value ([4]; bile acids 20 μM, 3 days, IL-6 and TGF-β) was “dose-dependent effects; also recorded: inhibited Th17 differentiation”. For the same compound, the Kd [5] was roughly 1000 nM and the RORγt reporter activity [6] was “significantly reduced the RORγt reporter activity”.
